Data published in patent US20230398146A1, “IMMUNE MODULATION OF MYELOID DERIVED SUPPRESSIVE CELL FUNCTION FOR CANCER TREATMENT” (SURGE Therapeutics, Inc., priority 2020, published 2023).

Test system: 4T1-Luc2 cells
Experiment: Survival of mice after resection of orthotopic 4T1-Luc2 breast tumors, composition administered at the tumor resection site
Type: in vivo, mouse
Description: In some embodiments, an animal model of cancer can be used to identify and/or characterize composition comprising a polymeric biomaterial and a modulator of myeloid-derived suppressive cells. For example, a tumor resection is performed on a tumor-bearing mouse, and a composition described herein, e.g., composition comprising a polymeric biomaterial and a modulator of myeloid-derived suppressive cells is administered to the tumor resection site. The survival of treated subjects is then monitored. In some embodiments, a composition comprising a polymeric biomaterial and a modulator of myeloid-derived suppressive cells is considered and/or determined to be useful in accordance with the present disclosure when it is characterized, in that when tested in vivo as described in the present Example, it extends survival of a treated subject, e.g., by at least 1 week, at least 2 weeks, at least 3 weeks, at least 4 weeks, at least 2 months, at least 3 months, at least 4 months, at least 5 months, at least 6 months, or longer, as compared to that observed in a control reference (e.g., a control in which a composition comprising a polymeric biomaterial and a modulator of myeloid-derived suppressive cells is not administered. For example, in some embodiments, a control reference may be administration of a polymeric biomaterial in the absence of a modulator of myeloid-derived suppressive cell function. In some embodiments, a control reference may be administration of a modulator of myeloid-derived suppressive cell function in solution. Alternatively, in some embodiments, a provided composition comprising a biomaterial preparation and a modulator of myeloid-derived suppressive cells is considered and/or determined to be useful for treatment of cancer (including, e.g., prevention or reduction in the likelihood of tumor relapse or metastasis) in accordance with the present disclosure when such a composition, after administration at a tumor resection site, reduces incidence of tumor recurrence and/or metastasis after the tumor resection (e.g., at least 1 month after tumor resection when the test subject is a mouse subject, or at least 3 months after tumor resection when the test subject is a human subject), for example, by at least 10% or more (comprising, e.g., at least 20%, at least 30%, at least 40%, at least 50%, at least 60%, at least 70%, at least 80%, at least 90%, or more) as compared to that observed in a control reference (e.g., as described above).
In some embodiments, female BALB/cJ mice are inoculated orthotopically with 100,000 breast cancer cells (e.g., 4T1-Luc2 cells). Ten days later, tumors are surgically resected, and either (i) a composition described herein, e.g., a composition comprising a polymeric biomaterial and a modulator of myeloid-derived suppressive cells, (ii) a composition comprising a polymeric biomaterial without a modulator of myeloid-derived suppressive cells, and/or (iii) a negative control composition (e.g., a buffered solution without such a composition) is administered into the resection cavity. Animal survival can be monitored to inspect for induction of antitumor immunity. In some embodiments, to confirm that a composition comprising a polymeric biomaterial and a modulator of myeloid-derived suppressive cells functions mechanistically, for example, by modulating recruitment and/or survival and/or proliferation of myeloid-derived suppressive cells (e.g., neutrophils), animal survival may be monitored following inhibition of recruitment and/or survival and/or proliferation of myeloid-derived suppressive cells (e.g., neutrophils). In some embodiments, to confirm that an administered composition comprising a polymeric biomaterial and a modulator of myeloid-derived suppressive cells functions mechanistically by modulating myeloid-derived suppressive cell effector function, animal survival may be monitored following modulating myeloid-derived suppressive cell effector function (e.g., as described herein). […]

[1] = 10% w/w poloxamer 407 + 3% w/w 187 kDa HA with agent, 1.25 mg/mouse, at tumor resection site (day 10), vs same biomaterial without agent and vs 15% w/w poloxamer 407

Cc1c(C#N)cccc1-c1cc(-c2cn(Cc3cccc(C(C)(C)O)n3)nn2)nc(N)n1 [AB928, etrumadenant]
survival of tumor resection mice [1]: survived over a longer period of time

O=C(c1ccccc1)c1ccc2n1CCC2C(=O)O (stereo not shown) [Ketorolac]
survival of tumor resection mice (FIG. 2A: 10% w/w poloxamer 407 + 3% w/w 187 kDa HA with agent, 6 mg/mouse, at tumor resection site, vs same biomaterial without agent and vs 15% w/w poloxamer 407): survived over a longer period of time
survival of tumor resection mice (FIG. 2B: 10% w/w poloxamer 407 + 3% w/w 187 kDa HA with agent, 9 mg/mouse, at tumor resection site, vs same biomaterial without agent and vs 15% w/w poloxamer 407): survived over a longer period of time
survival of tumor resection mice (FIG. 3: 9% w/w poloxamer 407 + 2.2% w/w 766 kDa HA with agent, 1.2 mg/mouse, at tumor resection site, vs same biomaterial without agent): survived over a longer period of time

c1cc(CN2CCCNCCNCCCNCC2)ccc1CN1CCCNCCNCCCNCC1 [Plerixafor]
survival of tumor resection mice [1]: survived over a longer period of time

CC/C=C\C[C@H](O)[C@H](O)/C=C/C=C/C=C\C=C\[C@@H](O)C/C=C\CCC(=O)O [Resolvin D2]
survival of tumor resection mice (FIG. 4: 10% w/w poloxamer 407 + 3% w/w 187 kDa HA with agent, 2.5 μg/mouse, at tumor resection site, vs same biomaterial without agent and vs 15% w/w poloxamer 407): survived over a longer period of time

CCCCC(=O)N(Cc1ccc(-c2ccccc2-c2nnn[nH]2)cc1)[C@H](C(=O)O)C(C)C [Valsartan]
survival of tumor resection mice (FIG. 7: 11% w/w poloxamer 407 + 1.8% w/w 766 kDa HA with agent, 1 mg/mouse, at tumor resection site, vs same biomaterial without agent): survived over a longer period of time
